Active and inactive are the calls of the source. The calls are words filed in the database; no cut-off is given here.
Tests used:
[1] = test system: MDA-MB-231; assay: Antiproliferative activity against human MDA-MB-231 cells assessed as inhibition of cell growth incubated for 72 hrs by MTT assay; assay type: functional, cell-based; details: MDA-MB-231, 72 h
[2] = test system: MDA-MB-468; assay: Antiproliferative activity against human MDA-MB-468 cells assessed as inhibition of cell growth incubated for 72 hrs by MTT assay; assay type: functional, cell-based; details: MDA-MB-468, 72 h
[3] = test system: MCF7; assay: Antiproliferative activity against human MCF7 cells assessed as inhibition of cell growth incubated for 72 hrs by MTT assay; assay type: functional, cell-based; details: MCF7, 72 h
[4] = test system: SUM-159-PT; assay: Antiproliferative activity against human SUM159 cells assessed as inhibition of cell growth incubated for 72 hrs by MTT assay; assay type: functional, cell-based
[5] = test system: 4T1; assay: Antiproliferative activity against mouse 4T1 cells assessed as inhibition of cell growth incubated for 72 hrs by MTT assay; assay type: functional, cell-based; details: 4T1, 72 h
[6] = test system: MDA-MB-468; assay: Induction of apoptosis in human MDA-MB-468 cells at 2 uM incubated for 48 hrs by annexin-V-APC/PI staining based flow cytometric analysis (reference value: 5.65 +/- 2.76 %); assay type: functional
[7] = test system: MDA-MB-468; assay: Induction of apoptosis in human MDA-MB-468 cells at 0.2 uM incubated for 48 hrs by annexin-V-APC/PI staining based flow cytometric analysis (reference value: 5.65 +/- 2.76 %); assay type: functional
[8] = test system: MDA-MB-231; assay: Antimigratory activity in human MDA-MB-231 cells assessed as downregulation of N-cadherin protein expression incubated for 48 hrs by Western blotting analysis; assay type: functional, cell-based
[9] = test system: NIH3T3; assay: Cytotoxicity against mouse 3T3 cells at 1 uM incubated for 72 hrs by MTT assay; assay type: toxicity, cell-based; details: nih3t3, 72 h
[10] = test system: MDA-MB-231; assay: Induction of apoptosis in human MDA-MB-231 cells at 1 uM incubated for 48 hrs by annexin-V-APC/PI staining based flow cytometric analysis (reference value: 5.9 +/- 0.26 %); assay type: functional
[11] = test system: MDA-MB-231; assay: Inhibition of NF-kappaB signalling pathway in human MDA-MB-231 cells assessed as downregulation of p65 phosphorylation at 0.5 to 2 uM incubated for 48 hrs by Western blotting analysis; assay type: cell-based; details: dose 0.5-2 µM
[12] = test system: MDA-MB-231; assay: Inhibition of NF-kappaB signalling pathway in human MDA-MB-231 cells assessed as downregulation of IkappaBalpha phosphorylation at 0.5 to 2 uM incubated for 48 hrs by Western blotting analysis; assay type: cell-based; details: dose 0.5-2 µM
[13] = test system: MDA-MB-231; assay: Induction of apoptosis in human MDA-MB-231 cells at 0.2 uM incubated for 48 hrs by annexin-V-APC/PI staining based flow cytometric analysis (reference value: 5.9 +/- 0.26 %); assay type: functional
[14] = test system: MDA-MB-231; assay: Antimigratory activity in human MDA-MB-231 cells assessed as downregulation of Vimentin protein expression incubated for 48 hrs by Western blotting analysis; assay type: functional, cell-based
[15] = test system: MDA-MB-231; assay: Inhibition of NF-kappaB signalling pathway in human MDA-MB-231 cells assessed as upregulation of cytoplasmic p65 expression at 0.2 to 2 uM incubated for 48 hrs by Western blotting analysis; assay type: cell-based; details: dose 0.2-2 µM
[16] = test system: MDA-MB-231; assay: Inhibition of NF-kappaB signalling pathway in human MDA-MB-231 cells assessed as effect on total p65 protein level at 0.2 to 2 uM incubated for 48 hrs by Western blotting analysis; assay type: cell-based; details: dose 0.2-2 µM
[17] = test system: MDA-MB-231; assay: Inhibition of NF-kappaB signalling pathway in human MDA-MB-231 cells assessed as downregulation of nuclear p65 expression at 0.2 to 2 uM incubated for 48 hrs by Western blotting analysis; assay type: cell-based; details: dose 0.2-2 µM
[18] = test system: MDA-MB-231; assay: Inhibition of NF-kappaB signalling pathway in human MDA-MB-231 cells assessed as inhibition of p65 nuclear translocation at 0.2 to 2 uM incubated for 48 hrs by Western blotting analysis; assay type: cell-based; details: dose 0.2-2 µM
[19] = test system: MDA-MB-468; assay: Antimigratory activity in human MDA-MB-468 cells assessed as reduction in number of migrated cells incubated for 48 hrs by crystal violet staining based transwell assay; assay type: functional, cell-based
[20] = test system: MDA-MB-468; assay: Induction of apoptosis in human MDA-MB-468 cells at 1 uM incubated for 48 hrs by annexin-V-APC/PI staining based flow cytometric analysis (reference value: 5.65 +/- 2.76 %); assay type: functional
[21] = test system: MDA-MB-468; assay: Induction of apoptosis in human MDA-MB-468 cells at 5 uM incubated for 48 hrs by annexin-V-APC/PI staining based flow cytometric analysis (reference value: 5.65 +/- 2.76 %); assay type: functional
[22] = test system: MDA-MB-231; assay: Induction of apoptosis in human MDA-MB-231 cells assessed as downregulation of BCL-2 protein expression incubated for 48 hrs by Western blotting analysis; assay type: functional, cell-based
[23] = test system: MDA-MB-231; assay: Induction of apoptosis in human MDA-MB-231 cells at 2 uM incubated for 48 hrs by annexin-V-APC/PI staining based flow cytometric analysis (reference value: 5.9 +/- 0.26 %); assay type: functional
[24] = test system: MDA-MB-468; assay: Antimigratory activity in human MDA-MB-468 cells assessed as downregulation of N-cadherin protein expression incubated for 48 hrs by Western blotting analysis; assay type: functional, cell-based
[25] = test system: MDA-MB-231; assay: Induction of apoptosis in human MDA-MB-231 cells assessed as downregulation of MCL-1 protein expression incubated for 48 hrs by Western blotting analysis; assay type: functional, cell-based
[26] = test system: MDA-MB-231; assay: Induction of apoptosis in human MDA-MB-231 cells at 0.5 uM incubated for 48 hrs by annexin-V-APC/PI staining based flow cytometric analysis (reference value: 5.9 +/- 0.26 %); assay type: functional
[27] = test system: MDA-MB-468; assay: Induction of apoptosis in human MDA-MB-468 cells at 0.5 uM incubated for 48 hrs by annexin-V-APC/PI staining based flow cytometric analysis (reference value: 5.65 +/- 2.76 %); assay type: functional
[28] = test system: MDA-MB-231; assay: Induction of apoptosis in human MDA-MB-231 cells assessed as upregulation of Bax protein expression incubated for 48 hrs by Western blotting analysis; assay type: functional, cell-based
[29] = test system: MDA-MB-231; assay: Induction of apoptosis in human MDA-MB-231 cells at 5 uM incubated for 48 hrs by annexin-V-APC/PI staining based flow cytometric analysis (reference value: 5.9 +/- 0.26 %); assay type: functional
[30] = test system: MDA-MB-468; assay: Antimigratory activity in human MDA-MB-468 cells assessed as downregulation of Vimentin protein expression incubated for 48 hrs by Western blotting analysis; assay type: functional, cell-based
[31] = test system: MDA-MB-231; assay: Induction of apoptosis in human MDA-MB-231 cells assessed as downregulation of BCL-xl protein expression incubated for 48 hrs by Western blotting analysis; assay type: functional, cell-based
[32] = test system: MDA-MB-231; assay: Antimigratory activity in human MDA-MB-231 cells assessed as reduction in number of migrated cells incubated for 48 hrs by crystal violet staining based transwell assay; assay type: functional, cell-based

SMILES: C=C1C(=O)O[C@H]2[C@H]1C(COC(=O)CC1(CC(=O)O)CCCC1)C/C=C\CC[C@@]1(C)O[C@@H]21 (stereo not given in full)
- IC50 [1]: 35.8 µM

SMILES: C=C1C(=O)O[C@H]2[C@H]1C(COC(=O)CC1(CC(=O)Oc3ccc(-c4cc(=S)ss4)cc3)CCCC1)C/C=C\CC[C@@]1(C)O[C@@H]21 (stereo not given in full)
- IC50 [1]: 2.11 µM

SMILES: C=C1C(=O)O[C@H]2[C@H]1CC/C(CO)=C\CC[C@@]1(C)O[C@@H]21
- IC50 [2]: 20 µM
- IC50 [3]: 6.76 µM
- IC50 [4]: 7.45 µM
- IC50 [1]: 3.84 µM
- IC50 [5]: 5.88 µM

SMILES: C=C1C(=O)O[C@H]2[C@H]1C(COC(=O)c1ccccc1C(=O)O)C/C=C\CC[C@@]1(C)O[C@@H]21 (stereo not given in full)
- IC50 [1]: > 50 µM

SMILES: C=C1C(=O)O[C@H]2[C@H]1C(COC(=O)CC1(CC(=O)Oc3ccc(-c4cc(=S)ss4)cc3)CCCCC1)C/C=C\CC[C@@]1(C)O[C@@H]21 (stereo not given in full)
- IC50 [1]: 1.76 µM

SMILES: C=C1C(=O)O[C@H]2[C@H]1C(COC(=O)CCCC(=O)O)C/C=C\CC[C@@]1(C)O[C@@H]21 (stereo not given in full)
- IC50 [1]: > 50 µM

SMILES: C=C1C(=O)O[C@H]2[C@H]1C(COC(=O)CCC(=O)Oc1ccc(-c3cc(=S)ss3)cc1)C/C=C\CC[C@@]1(C)O[C@@H]21 (stereo not given in full)
- IC50 [1]: 4.34 µM

SMILES: C=C1C(=O)O[C@H]2[C@H]1C(COC(=O)CC(C)(C)CC(=O)O)C/C=C\CC[C@@]1(C)O[C@@H]21 (stereo not given in full)
- IC50 [1]: 36.4 µM

SMILES: C=C1C(=O)O[C@H]2[C@H]1C(COC(=O)c1ccccc1C(=O)Oc1ccc(-c3cc(=S)ss3)cc1)C/C=C\CC[C@@]1(C)O[C@@H]21 (stereo not given in full)
- IC50 [1]: 2.91 µM

SMILES: C=C1C(=O)O[C@H]2[C@H]1C(COC(=O)CCCCC(=O)Oc1ccc(-c3cc(=S)ss3)cc1)C/C=C\CC[C@@]1(C)O[C@@H]21 (stereo not given in full)
- IC50 [1]: 6.2 µM

SMILES: C=C1C(=O)O[C@H]2[C@H]1C(COC(=O)CCCC(=O)Oc1ccc(-c3cc(=S)ss3)cc1)C/C=C\CC[C@@]1(C)O[C@@H]21 (stereo not given in full)
- IC50 [1]: 8.52 µM

SMILES: C=C1C(=O)O[C@H]2[C@H]1C(COC(=O)CCC(=O)O)C/C=C\CC[C@@]1(C)O[C@@]21C (stereo not given in full)
- IC50 [1]: > 50 µM

SMILES: C=C1C(=O)O[C@H]2[C@H]1CC/C(C(=O)O)=C\CC[C@@]1(C)O[C@@H]21
- IC50 [1]: > 50 µM

SMILES: C=C1C(=O)O[C@H]2[C@H]1C(COC(=O)/C=C/c1ccc(OCc3ccc(-c4cc(=S)ss4)cc3)cc1)C/C=C\CC[C@@]1(C)O[C@@]21C (stereo not given in full)
- IC50 [1]: 6.11 µM

SMILES: C=C1C(=O)O[C@H]2[C@H]1CC/C(C(=O)OCCCCOc1ccc(-c3cc(=S)ss3)cc1)=C\CC[C@@]1(C)O[C@@H]21
- IC50 [1]: 2.47 µM

SMILES: C=C1C(=O)O[C@H]2[C@H]1CC/C(C(=O)Oc1ccc(-c3cc(=S)ss3)cc1)=C\CC[C@@]1(C)O[C@@H]21
- IC50 [1]: 1.39 µM

SMILES: C=C1C(=O)O[C@H]2[C@H]1CC/C(C(=O)OCCCOc1ccc(-c3cc(=S)ss3)cc1)=C\CC[C@@]1(C)O[C@@H]21
- IC50 [1]: 2.09 µM

SMILES: C=C1C(=O)O[C@H]2[C@H]1C(COC(=O)CC1(CC(=O)O)CCCCC1)C/C=C\CC[C@@]1(C)O[C@@H]21 (stereo not given in full)
- IC50 [1]: 12.8 µM

SMILES: C=C1C(=O)O[C@H]2[C@H]1C(COC(=O)CCCCC(=O)O)C/C=C\CC[C@@]1(C)O[C@@H]21 (stereo not given in full)
- IC50 [1]: > 50 µM

SMILES: C=C1C(=O)O[C@H]2[C@H]1C(COC(=O)/C=C/c1ccccc1OCCc1ccc(-c3cc(=S)ss3)cc1)C/C=C\CC[C@@]1(C)O[C@@]21C (stereo not given in full)
- Activity [6]: 11.32%
- IC50 [2]: 0.37 µM
- Activity [7]: 5.8%
- IC50 [3]: 1.81 µM
- Activity [8]: Dose-Dependent Effect
- Activity [9]: Toxic
- Activity [10]: 15.46%
- inhibition [11]: Active
- inhibition [12]: Active
- Activity [13]: 6.85%
- Activity [14]: Dose-Dependent Effect
- inhibition [15]: Active
- inhibition [16]: inactive
- inhibition [17]: Active
- inhibition [18]: Active
- Activity [19]: Dose-Dependent Effect
- IC50 [4]: 1.06 µM
- Activity [20]: 4.87%
- Activity [21]: 52.61%
- Activity [22]: Dose-Dependent Effect
- Activity [23]: 20.32%
- Activity [24]: Dose-Dependent Effect
- IC50 [1]: 1.07 µM
- Activity [25]: Dose-Dependent Effect
- Activity [26]: 7.9%
- Activity [27]: 4.3%
- Activity [28]: Dose-Dependent Effect
- Activity [29]: 49.35%
- Activity [30]: Dose-Dependent Effect
- Activity [31]: Dose-Dependent Effect
- IC50 [5]: 2.85 µM
- Activity [32]: Dose-Dependent Effect

SMILES: C=C1C(=O)O[C@H]2[C@H]1CC/C(C(=O)OCCOc1ccc(-c3cc(=S)ss3)cc1)=C\CC[C@@]1(C)O[C@@H]21
- IC50 [1]: 2.35 µM

SMILES: C=C1C(=O)O[C@H]2[C@H]1C(COC(=O)CC(C)(C)CC(=O)Oc1ccc(-c3cc(=S)ss3)cc1)C/C=C\CC[C@@]1(C)O[C@@H]21 (stereo not given in full)
- IC50 [1]: 1.68 µM

SMILES: C=C1C(=O)O[C@H]2[C@H]1C(COC(=O)c1cc3ccccc3cc1C(=O)Oc1ccc(-c3cc(=S)ss3)cc1)C/C=C\CC[C@@]1(C)O[C@@H]21 (stereo not given in full)
- IC50 [1]: 7.58 µM

SMILES: C=C1C(=O)O[C@H]2[C@H]1C(COC(=O)c1cc3ccccc3cc1C(=O)O)C/C=C\CC[C@@]1(C)O[C@@H]21 (stereo not given in full)
- IC50 [1]: 4.96 µM

SMILES: Oc1ccc(-c2cc(=S)ss2)cc1
- IC50 [1]: > 50 µM

— ChEMBL document CHEMBL5537150, “Synthesis of melampomagnolide B derivatives as potential anti-Triple Negative Breast Cancer agents” (Eur J Med Chem, 2024)
